Data reported in ChEMBL document CHEMBL1151030, “Synthesis of tetrazol-1-yl analogs of HMG-COA reductase inhibitor BMS180431 (formerly BMY21950)” (Bioorg Med Chem Lett, 1992).
pIC50: −log10 of the molar value.

Tests used:
[1] = target: T1, 3-hydroxy-3-methylglutaryl-coenzyme A reductase (Mus musculus, UniProt Q01237); test: In vitro inhibitory activity against isolated enzyme HMG-CoA reductase
T1 sequence (Q01237 whole entry): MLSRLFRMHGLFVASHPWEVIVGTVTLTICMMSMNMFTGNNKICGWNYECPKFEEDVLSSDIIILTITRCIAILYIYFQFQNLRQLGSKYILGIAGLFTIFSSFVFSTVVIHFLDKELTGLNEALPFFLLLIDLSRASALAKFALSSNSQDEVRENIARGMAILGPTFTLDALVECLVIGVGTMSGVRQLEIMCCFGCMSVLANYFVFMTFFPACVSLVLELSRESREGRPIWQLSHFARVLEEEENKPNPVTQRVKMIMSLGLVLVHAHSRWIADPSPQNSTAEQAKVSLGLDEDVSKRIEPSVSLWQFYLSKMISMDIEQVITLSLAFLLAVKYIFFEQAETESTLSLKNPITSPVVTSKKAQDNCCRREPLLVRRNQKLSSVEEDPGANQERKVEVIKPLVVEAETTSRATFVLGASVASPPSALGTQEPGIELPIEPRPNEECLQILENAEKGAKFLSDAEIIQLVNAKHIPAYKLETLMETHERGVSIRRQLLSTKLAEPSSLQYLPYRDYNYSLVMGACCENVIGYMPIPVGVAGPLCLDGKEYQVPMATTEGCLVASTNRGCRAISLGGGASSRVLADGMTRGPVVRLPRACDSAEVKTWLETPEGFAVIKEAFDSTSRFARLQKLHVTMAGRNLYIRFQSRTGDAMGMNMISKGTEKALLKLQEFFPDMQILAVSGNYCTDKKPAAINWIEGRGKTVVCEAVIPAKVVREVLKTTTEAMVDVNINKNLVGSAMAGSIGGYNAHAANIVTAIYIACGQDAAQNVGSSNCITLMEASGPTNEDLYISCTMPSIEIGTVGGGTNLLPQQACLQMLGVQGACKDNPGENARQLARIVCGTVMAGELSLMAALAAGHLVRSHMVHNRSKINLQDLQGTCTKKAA

[2] = tested on: Hepatocyte; test: Ratio of inhibitory activity of HepG2 to hepatocyte; type: cell-based
[3] = target: T2, 3-hydroxy-3-methylglutaryl-coenzyme A reductase (Homo sapiens, UniProt P04035); test: Compound was evaluated for inhibitory activity against HMG-CoA reductase in HepG2 cells; type: cell-based
T2 sequence (P04035 whole entry): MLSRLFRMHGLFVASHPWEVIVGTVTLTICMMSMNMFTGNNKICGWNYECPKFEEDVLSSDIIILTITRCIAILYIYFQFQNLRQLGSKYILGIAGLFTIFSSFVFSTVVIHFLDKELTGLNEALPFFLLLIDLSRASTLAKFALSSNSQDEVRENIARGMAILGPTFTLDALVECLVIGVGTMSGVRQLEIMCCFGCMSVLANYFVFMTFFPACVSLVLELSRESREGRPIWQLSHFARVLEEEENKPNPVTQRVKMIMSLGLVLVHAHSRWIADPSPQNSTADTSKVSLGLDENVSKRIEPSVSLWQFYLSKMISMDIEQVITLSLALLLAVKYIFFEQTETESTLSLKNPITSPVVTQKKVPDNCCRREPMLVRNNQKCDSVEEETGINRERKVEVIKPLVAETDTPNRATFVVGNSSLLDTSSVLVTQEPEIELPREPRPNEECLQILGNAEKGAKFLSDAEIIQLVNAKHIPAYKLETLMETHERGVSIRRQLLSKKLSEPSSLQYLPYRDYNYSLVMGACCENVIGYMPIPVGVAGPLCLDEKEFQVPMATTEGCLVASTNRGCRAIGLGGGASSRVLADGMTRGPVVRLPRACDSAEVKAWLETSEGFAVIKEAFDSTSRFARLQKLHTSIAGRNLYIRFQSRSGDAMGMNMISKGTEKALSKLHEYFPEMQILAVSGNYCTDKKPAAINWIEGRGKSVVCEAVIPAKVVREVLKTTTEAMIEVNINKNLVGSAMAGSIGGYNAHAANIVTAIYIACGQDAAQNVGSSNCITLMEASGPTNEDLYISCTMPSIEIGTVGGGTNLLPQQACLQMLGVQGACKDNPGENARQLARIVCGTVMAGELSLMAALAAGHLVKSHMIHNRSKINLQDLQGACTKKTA

[4] = target: T3, 3-hydroxy-3-methylglutaryl-coenzyme A reductase (Rattus norvegicus, UniProt P51639); test: Compound was evaluated for inhibitory activity against HMG-CoA reductase from rat hepatocyte; type: cell-based
T3 sequence (P51639 whole entry): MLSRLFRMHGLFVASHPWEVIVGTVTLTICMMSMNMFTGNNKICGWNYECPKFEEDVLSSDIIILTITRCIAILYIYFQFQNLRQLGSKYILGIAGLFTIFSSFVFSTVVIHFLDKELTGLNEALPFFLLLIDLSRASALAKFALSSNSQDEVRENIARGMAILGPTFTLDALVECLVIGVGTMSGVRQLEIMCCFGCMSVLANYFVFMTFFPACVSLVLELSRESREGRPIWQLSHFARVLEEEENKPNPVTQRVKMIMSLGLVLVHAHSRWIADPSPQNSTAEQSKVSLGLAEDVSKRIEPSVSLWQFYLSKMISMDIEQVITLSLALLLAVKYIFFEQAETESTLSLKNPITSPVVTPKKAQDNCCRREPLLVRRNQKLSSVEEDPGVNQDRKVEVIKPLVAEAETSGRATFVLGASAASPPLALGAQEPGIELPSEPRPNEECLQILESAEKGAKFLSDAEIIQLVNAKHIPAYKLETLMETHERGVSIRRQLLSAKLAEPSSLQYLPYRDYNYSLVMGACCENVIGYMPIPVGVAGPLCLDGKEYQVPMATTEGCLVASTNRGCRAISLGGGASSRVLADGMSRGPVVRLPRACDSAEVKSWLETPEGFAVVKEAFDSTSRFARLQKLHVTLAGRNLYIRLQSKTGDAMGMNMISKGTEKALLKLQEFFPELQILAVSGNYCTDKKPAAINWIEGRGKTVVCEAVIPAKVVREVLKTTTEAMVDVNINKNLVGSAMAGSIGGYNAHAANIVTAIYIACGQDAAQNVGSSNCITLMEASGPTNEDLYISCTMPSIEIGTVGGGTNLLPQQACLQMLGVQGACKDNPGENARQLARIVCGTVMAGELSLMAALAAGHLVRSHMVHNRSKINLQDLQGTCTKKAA

[5] = target: T3, 3-hydroxy-3-methylglutaryl-coenzyme A reductase; test: Compound was evaluated for inhibitory activity against HMG-CoA reductase in spleen cell preparation; type: tissue-based
[6] = tested on: HepG2; test: Ratio of inhibitory activity against HMG-CoA reductase of HepG2 cells vs hepatocytes; type: cell-based
[7] = target: T2, 3-hydroxy-3-methylglutaryl-coenzyme A reductase; test: Compound was evaluated for inhibitory activity against HMG-CoA reductase in adrenal cell preparation; type: cell-based
[8] = target: T3, 3-hydroxy-3-methylglutaryl-coenzyme A reductase; test: Compound was evaluated for inhibitory activity against HMG-CoA reductase in testes cell preparation; type: tissue-based, Testis

| pIC50 [1] | pIC50 [3] | pIC50 [4] | pIC50 [5] | pIC50 [7] | pIC50 [8] | Structure (SMILES) | Ratio [2] | Ratio [6] |
| --- | --- | --- | --- | --- | --- | --- | --- | --- |
| 7.57 | – | – | – | – | – | CC[C@H](C)C(=O)O[C@H]1C[C@@H](C)C=C2C=C[C@H](C)[C@H](CC[C@@H]3C[C@@H](O)CC(=O)O3)[C@H]21 [LOVASTATIN] | – | – |
| < 4.00 | – | – | – | – | – | O=C(O)C[C@H](O)C[C@H](O)/C=C/C(=C(c1ccc(F)cc1)c1ccc(F)cc1)n1nnnc1-c1ccccc1 | – | – |
| 6.20 | 5.89 | 7.00 | – | – | – | Cc1nnnn1C(/C=C/[C@@H](O)C[C@@H](O)CC(=O)O)=C(c1ccc(F)cc1)c1ccc(F)cc1 | 13 | – |
| 7.37 | 5.87 | – | 5.49 | 5.80 | 5.74 | Cn1nnnc1C(/C=C/[C@@H](O)C[C@@H](O)CC(=O)O)=C(c1ccc(F)cc1)c1ccc(F)cc1 | – | 62 |
| 6.92 | 5.76 | 7.70 | – | – | – | O=C(O)C[C@H](O)C[C@H](O)/C=C/C(=C(c1ccc(F)cc1)c1ccc(F)cc1)n1cnnn1 | – | 86 |
